Structures can show the parent of a compound that is named as a salt. Where two headings read alike, the source gives them in different places.
Tests used:
neonatal mice = assay: Sedative activity, observation of orally dosed mice; format: in vivo; conditions: 6 neonatal mice, at 1 mg/kg and at 10 mg/kg, observed for 2 hours versus control mice
Method: m-amino Clonidine was administered orally to 6 neonatal mice at 1 mg/kg and at 10 mg/kgwhichwere observed for 2 hours in comparison with control mice.

piglets = format: in vivo; conditions: groups of 2 piglets; for MEAN SCOUR SCORE ± SEM: score 0-3
[1] = 0.1 mg/kg p.o., duration of test 6 h
[2] = 0.1 mg/kg p.o., duration of test 12 h
[3] = 0.2 mg/kg p.o., duration of test 6 h

Compound	sedation (neonatal mice)	o/o INHIBITION OF SCOUR (piglets; [1]) [o/o]	MEAN SCOUR SCORE ± SEM (piglets; [1])	o/o INHIBITION OF SCOUR (piglets; [2]) [o/o]	MEAN SCOUR SCORE ± SEM (piglets; [2])	o/o INHIBITION OF SCOUR (piglets; [3]) [o/o]	MEAN SCOUR SCORE ± SEM (piglets; [3])	MEAN SCOUR SCORE ± SEM (piglets; 0.2 mg/kg p.o., duration of test 12 h)	o/o INHIBITION OF SCOUR (piglets; 0.2 mg/kg p.o., duration of test 12 h, P 0.05) [o/o]	MEAN SCOUR SCORE ± SEM (piglets; 1 mg/kg p.o., duration of test 6 h)	o/o INHIBITION OF SCOUR (piglets; 1 mg/kg p.o., duration of test 6 h, P 0.01) [o/o]	MEAN SCOUR SCORE ± SEM (piglets; 1 mg/kg p.o., duration of test 12 h)	o/o INHIBITION OF SCOUR (piglets; 1 mg/kg p.o., duration of test 12 h, P 0.05) [o/o]
Nc1ccc(Cl)c(N=C2NCCN2)c1Cl [Example 3, 2-(3-amino-2,6-dichlorophenylimino) imidazolidine]	marked sedation												
Clc1cc(NCc2ccccc2)cc(Cl)c1N=C1NCCN1 [Example 4, 2-(4-Eenzylamino-2,6-dichlorophenylimino)imidazolidine_ hydrochloride]		15	2.3 ± 0.5	10	1.9 ± 0.2	41	1.6 ± 0.1	1.2 ± 0.2	43	0.4 ± 0.4	85	1.1 ± 0.2	48

Reference: EP0070084A2, “Imidazoline derivatives” (BEECHAM GROUP PLC, priority 1981, dated 1983)
